Row | melting point [°C] | SMILES
1 | 128 to 129 | CS(=O)(=O)Oc1ccc(-n2c(SCc3ccc(Cl)cc3)nc3ccc(Cl)cc32)cc1 [Example 25, 4-{6-Chloro-2-[(4-chlorobenzyl)thio]-1H-benzimidazol-1-yl}phenyl methanesulfonate]
2 | 156 to 157 | Clc1ccc(CSc2nc3ccc(Cl)cc3n2-c2ccc(Cl)cc2)cc1 [Example 26, 6-Chloro-2-[(4-chlorobenzyl)thio]-1-(4-chlorophenyl)-1H-benzimidazole]
3 | 139 to 140 | CN(C)C(=O)c1ccc(-n2c(SCc3ccc(Cl)cc3)nc3ccc(Cl)cc32)cc1 [Example 27, 4-{6-Chloro-2-[(4-chlorobenzyl)thio]-1H-benzimidazol-1-yl}-N,N-dimethylbenzamide]
4 | 136 to 137 | CCOc1ccc(-n2c(SCc3ccc(Br)cc3)nc3ccc(Cl)cc32)cc1 [Example 30, 2-[(4-Bromobenzyl)thio]-6-chloro-1-(4-ethoxyphenyl)-1H-benzimidazole]
5 | 130 to 131 | CCOCOc1ccc(-n2c(SCc3ccc(Cl)cc3)nc3ccc(Cl)cc32)cc1 [Example 31, 6-Chloro-2-[(4-chlorobenzyl)thio]-1-[4-(ethoxymethoxy)phenyl]-1H-benzimidazole]
6 | 145 to 146 | CCOCOc1ccc(-n2c(SCc3ccc(Br)cc3)nc3ccc(Cl)cc32)cc1 [Example 32, 2-[(4-Bromobenzyl)thio]-6-chloro-1-[4-(ethoxymethoxy)phenyl]-1H-benzimidazole]
7 | 116 to 117 | CCOc1ccc(-n2c(SCc3ccc(-c4ccccc4)cc3)nc3ccc(Cl)cc32)cc1 [Example 34, 2-[(Biphenyl-4-ylmethyl)thio]-6-chloro-1-(4-ethoxyphenyl)-1H-benzimidazole]
8 | 154 to 155 | CCOc1ccc(-n2c(SCc3ccc(C#N)cc3)nc3ccc(Cl)cc32)cc1 [Example 35, 4-({[6-Chloro-1-(4-ethoxyphenyl)-1H-benzimidazol-2-yl]thio}methyl)benzonitrile]
9 | 107 to 109 | CCOc1ccc(-n2c(SCc3ccc(C(=O)OC)cc3)nc3ccc(Cl)cc32)cc1 [Example 37, Methyl 4-({[6-chloro-1-(4-ethoxyphenyl)-1H-benzimidazol-2-yl]thio}methyl)benzoate]
10 | 125 to 126 | CON(C)C(=O)c1ccc(-n2c(SCc3ccc(Cl)cc3)nc3ccc(Cl)cc32)cc1 [Example 39, 4-{6-Chloro-2-[(4-chlorobenzyl)thio]-1H-benzimidazol-1-yl}-N-methoxy-N-methylbenzamide]
11 | 176 to 177 | CCC(=O)c1ccc(-n2c(SCc3ccc(Cl)cc3)nc3ccc(Cl)cc32)cc1 [Example 40, 1-(4-{6-Chloro-2-[(4-chlorobenzyl)thio]-1H-benzimidazol-1-yl}phenyl)propan-1-one]
12 | 162 to 163 | CC(C)C(=O)c1ccc(-n2c(SCc3ccc(Cl)cc3)nc3ccc(Cl)cc32)cc1 [Example 41, 1-(4-{6-Chloro-2-[(4-chlorobenzyl)thio]-1H-benzimidazol-1-yl}phenyl)-2-methylpropan-1-one]
13 | 265 to 266 | O=C(O)c1ccc(-n2c(SCc3ccc(Cl)cc3)nc3ccc(Cl)cc32)cc1 [Example 42, 4-{6-Chloro-2-[(4-chlorobenzyl)thio]-1H-benzimidazol-1-yl}benzoic acid]
14 | 185 to 186 | O=C(NCCO)c1ccc(-n2c(SCc3ccc(Cl)cc3)nc3ccc(Cl)cc32)cc1 [Example 43, 4-{6-Chloro-2-[(4-chlorobenzyl)thio]-1H-benzimidazol-1-yl}-N-(2-hydroxyethyl)benzamide]
15 | 95 to 98 | CCOc1ccc(-n2c(SC(C)c3ccc(Br)cc3)nc3ccc(Cl)cc32)cc1 (centres unmarked) [Example 48, 2-{[1-(4-Bromophenyl)ethyl]thio}-6-chloro-1-(4-ethoxyphenyl)-1H-benzimidazole]
16 | 82 to 83 | Clc1ccc2nc(SCc3ccccc3)n(-c3ccccc3)c2c1 [Example 49, 2-(Benzylthio)-6-chloro-1-phenyl-1H-benzimidazole]
17 | 95 to 96 | COCOc1ccc(-n2c(SCc3ccccn3)nc3ccc(Cl)cc32)cc1 [Example 55, 6-Chloro-1-[4-(methoxymethoxy)phenyl]-2-[(pyridin-2-ylmethyl)thio]-1H-benzimidazole]
18 | 101 to 102 | COCOc1ccc(-n2c(SCc3cccnc3)nc3ccc(Cl)cc32)cc1 [Example 56, 6-Chloro-1-[4-(methoxymethoxy)phenyl]-2-[(pyridin-3-ylmethyl)thio]-1H-benzimidazole]
19 | 118 to 119 | CCOC(=O)N1CCC(n2c(SCc3ccc(Cl)cc3)nc3ccc(Cl)cc32)CC1 [Example 58, Ethyl 4-{6-chloro-2-[(4-chlorobenzyl)thio]-1H-benzimidazol-1-yl}piperidine-1-carboxylate]
20 | 123 to 124 | CCOC(=O)N1CCC(n2c(SCc3ccc(Br)cc3)nc3ccc(Cl)cc32)CC1 [Example 59, Ethyl 4-{2-[(4-bromobenzyl)thio]-6-chloro-1H-benzimidazol-1-yl}piperidine-1-carboxylate]
21 | 173 to 175 | CCOc1ccc(-n2c(NCc3ccc(Cl)cc3)nc3ccc(Cl)cc32)cc1.Cl [Example 68, N-(4-Chlorobenzyl)-6-chloro-1-(4-ethoxyphenyl)-1H-benzimidazol-2-amine hydrochloride]
22 | 135 to 138 | CCOc1ccc(-n2c(NCc3ccc(Br)cc3)nc3ccc(Cl)cc32)cc1.Cl [Example 69, N-(4-Bromobenzyl)-6-chloro-1-(4-ethoxyphenyl)-1H-benzimidazol-2-amine hydrochloride]

The next lines start with the molecule.

Row | SMILES | melting point [°C]
23 | Cl.FC(F)(F)COc1ccc(-n2c(SCc3ccc(Cl)cc3)nc3ccc(Cl)cc32)cc1 | 106 to 107
24 | Cl.Clc1ccc(CSc2nc3cc(Cl)ccc3n2-c2ccc(OCC3CC3)cc2)cc1 | 118 to 126
25 | COc1ccc(-n2c(SCc3ccc(Cl)cc3)nc3ccc(Cl)cc32)cn1.Cl | 80 to 86
26 | COc1ccc(-n2c(SCc3ccc(C(F)(F)F)nc3)nc3ccc(Cl)cc32)cn1.Cl | 69 to 76
27 | CCOc1ccc(-n2c(SCc3ccc(C(C)C)cc3)nc3ccc(Cl)cc32)cc1.Cl | 96 to 100
28 | Cl.FC(F)(F)Oc1ccc(-n2c(SCc3ccc(Cl)cc3)nc3cc(Cl)ccc32)cc1 | 96 to 100
29 | COc1ccc(-n2c(SCc3ccc(Cl)cc3)nc3ccc(Cl)cc32)cc1 [Example 1, 6-Chloro-2-[(4-chlorobenzyl)thio]-1-(4-methoxyphenyl)-1H-benzimidazole] | 116 to 117
30 | COc1ccc(-n2c(SCc3ccccc3Cl)nc3ccc(Cl)cc32)cc1 [Example 3, 6-Chloro-2-[(2-chlorobenzyl)thio]-1-(4-methoxyphenyl)-1H-benzimidazole] | 94 to 95
31 | COc1ccc(-n2c(SCc3cccc(OC)c3)nc3ccc(Cl)cc32)cc1 [Example 5, 6-Chloro-2-[(3-methoxybenzyl)thio]-1-(4-methoxyphenyl)-1H-benzimidazole] | 93 to 94
32 | COc1ccc(CSc2nc3ccc(Cl)cc3n2-c2ccc(OC)cc2)cc1 [Example 6, 6-Chloro-2-[(4-methoxybenzyl)thio]-1-(4-methoxyphenyl)-1H-benzimidazole] | 119 to 120
33 | Oc1ccc(-n2c(SCc3ccc(Cl)cc3)nc3ccc(Cl)cc32)cc1 [Example 9, 4-{6-Chloro-2-[(4-chlorobenzyl)thio]-1H-benzimidazol-1-yl}phenol] | 210 to 212
34 | Clc1ccc(CSc2nc3ccc(Cl)cc3n2-c2ccc(OCC3CC3)cc2)cc1 [Example 11, 6-Chloro-2-[(4-chlorobenzyl)thio]-1-[4-(cyclopropylmethoxy)phenyl]-1H-benzimidazole] | 137 to 138
35 | CC(=O)OCCOc1ccc(-n2c(SCc3ccc(Cl)cc3)nc3ccc(Cl)cc32)cc1 [Example 15, 2-(4-{6-Chloro-2-[(4-chlorobenzyl)thio]-1H-benzimidazol-1-yl}phenoxy)ethyl acetate] | 126 to 127
36 | OCCOc1ccc(-n2c(SCc3ccc(Cl)cc3)nc3ccc(Cl)cc32)cc1 [Example 16, 2-(4-{6-Chloro-2-[(4-chlorobenzyl)thio]-1H-benzimidazol-1-yl}phenoxy)ethanol] | 113 to 114
37 | COc1cccc(-n2c(SCc3ccc(Cl)cc3)nc3ccc(Cl)cc32)c1 [Example 17, 6-Chloro-2-[(4-chlorobenzyl)thio]-1-(3-methoxyphenyl)-1H-benzimidazole] | 100 to 101
38 | COc1ccccc1-n1c(SCc2ccc(Cl)cc2)nc2ccc(Cl)cc21 [Example 18, 6-Chloro-2-[(4-chlorobenzyl)thio]-1-(2-methoxyphenyl)-1H-benzimidazole] | 124 to 125
39 | CCOC(=O)c1ccc(-n2c(SCc3ccc(Cl)cc3)nc3ccc(Cl)cc32)cc1 [Example 19, Ethyl 4-{6-chloro-2-[(4-chlorobenzyl)thio]-1H-benzimidazol-1-yl}benzoate] | 100 to 101
40 | COc1ccc(-n2c(SCc3ccc(Cl)cc3)nc3ccc(OC)cc32)cc1 [Example 20, 2-[(4-Chlorobenzyl)thio]-6-methoxy-1-(4-methoxyphenyl)-1H-benzimidazole] | 80 to 81
41 | COc1ccc(-n2c(SCc3ccccc3)nc3ccc(Cl)cc32)cc1 [Example 21, 2-(Benzylthio)-6-chloro-1-(4-methoxyphenyl)-1H-benzimidazole] | 89 to 90
42 | CCCCOc1ccc(-n2c(SCc3ccc(Cl)cc3)nc3ccc(Cl)cc32)cc1 [Example 22, 1-(4-Butoxyphenyl)-6-chloro-2-[(4-chlorobenzyl)thio]-1H-benzimidazole] | 96 to 97
43 | CC(C)Oc1ccc(-n2c(SCc3ccc(Cl)cc3)nc3ccc(Cl)cc32)cc1 [Example 23, 6-Chloro-2-[(4-chlorobenzyl)thio]-1-(4-isopropoxyphenyl)-1H-benzimidazole] | 102 to 103
44 | COCCOc1ccc(-n2c(SCc3ccc(Cl)cc3)nc3ccc(Cl)cc32)cc1 [Example 24, 6-Chloro-2-[(4-chlorobenzyl)thio]-1-[4-(2-methoxyethoxy)phenyl]-1H-benzimidazole] | 88 to 90

Reference: US20080021069A1, “Receptor Function Regulating Agent” (TAKEDA PHARMACEUTICAL COMPANY LIMITED, priority 2004, published 2008)
